Experimental data reported in BindingDB's records for doi:10.1016/j.bmcl.2017.04.068 (Beijing Institute of Pharmacology & Toxicology, 2017).

Test: Inhibition of rilpivirine-resistant HIV1 NL4-3 reverse transcriptase E138K mutant infected in human TZM-b1 cells after 2 days by bright Glo-luciferase reporter gene assay

| SMILES | EC50 |
| --- | --- |
| Cc1cc(/C=C/C#N)cc(C)c1Oc1cc(Nc2ccc(C#N)cc2)c(N)cc1C(=O)OCCC#N | 2.9 nM |
| Cc1cc(/C=C/C#N)cc(C)c1Oc1cc(Nc2ccc(C#N)cc2)c(N)cc1C(=O)NCCCl | 8.5 nM |
| Cc1cc(/C=C/C#N)cc(C)c1Oc1cc(Nc2ccc(C#N)cc2)c(N)cc1C(=O)N1CC1 | 8.7 nM |
| COCCOC(=O)c1cc(N)c(Nc2ccc(C#N)cc2)cc1Oc1c(C)cc(/C=C/C#N)cc1C | 4.6 nM |
| Cc1cc(/C=C/C#N)cc(C)c1Oc1cc(Nc2ccc(C#N)cc2)c(N)cc1C(=O)NCCCO | 23 nM |
